Each structure is given as a SMILES string. Structures can show the parent of a compound that is named as a salt.

Experimental findings from patent US8609653B2, “Azaindole compounds and methods for treating HIV” (priority 2011, dated 2013) are described below.

The subject of the test is HIV. The test is described as follows: MT4 assay: antiviral HIV activity in MT-4 cells. It is filed as cell-based. Particulars: Human immunodeficiency virus 1, MT4, 96 h, read-out: HIV MT4 Assay IC50 (μM), HTLV-1 transformed cell line MT-4; read-out 96 hours later with cell titer glo; 10 point dose response. The method, then: Antiviral HIV activity and cytotoxicity values for compounds of the invention from Table 1 were measured in parallel in the HTLV-1 transformed cell line MT-4 based on the method previously described (Hazen et al., 2007, In vitro antiviral activity of the novel, tyrosyl-based human immunodeficiency virus (HIV) type 1 protease inhibitor brecanavir (GW640385) in combination with other antiretrovirals and against a panel of protease inhibitor-resistant HIV (Hazen et al., “In vitro antiviral activity of the novel, tyrosyl-based human immunodeficiency virus (HIV) type 1 protease inhibitor brecanavir (GW640385) in combination with other antiretrovirals and against a panel of protease inhibitor-resistant HIV”, Antimicrob. Agents Chemother. 2007, 51: 3147-3154; and Pauwels et al., “Sensitive and rapid assay on MT-4 cells for the detection of antiviral compounds against the AIDS virus”, J. of Virological Methods 1987, 16: 171-185).
Luciferase activity was measured 96 hours later by adding a cell titer glo (Promega, Madison, Wis.). Percent inhibition of cell protection data was plotted relative to no compound control. Under the same condition, cytotoxicity of the compounds was determined using cell titer Glo™ (Promega, Madison, Wis.). IC50s were determined from a 10 point dose response curve using 3-4-fold serial dilution for each compound, which spans a concentration range>1000 fold.
These values are plotted against the molar compound concentrations using the standard four parameter logistic equation: y=((Vmax*x^n)/(K^n+x^n))+Y2
Y2=minimum y n=slope factor
Vmax=maximum y x=compound concentration [M]
For the molecule `COc1ccc(-c2c([C@H](OC(C)(C)C)C(=O)O)c(C)nc3c2ccn3Cc2ccc(F)c(F)c2)c(C)c1` (atropisomer, axis not shown; (M)) [Example 111, (2S)(M)-2-(tert-Butoxy)-2-(1-(3,4-difluorobenzyl)-4-(4-methoxy-2-methylphenyl)-6-methyl-1H-pyrrolo[2,3-b]pyridin-5-yl)acetic acid], the IC50 turned out to be 0.037 µM.

`Cc1nc2c(ccn2Cc2cc(F)ccc2F)c(-c2ccc3c(c2)CCCO3)c1C(OC(C)(C)C)C(=O)O` (stereo not drawn) [Example 33, 2-(tert-butoxy)-2-(4-(chroman-6-yl)-1-(2,5-difluorobenzyl)-6-methyl-1H-pyrrolo[2,3-b]pyridin-5-yl)acetic acid]: the IC50 was determined as 0.096 µM.

Consider `Cc1nc2c(ccn2Cc2ccc(F)c(F)c2)c(-c2ccc3c(c2C)NCCO3)c1[C@H](OC(C)(C)C)C(=O)O` (atropisomer, axis not shown; (M)) [Example 97, (2S)(M)-2-(tert-butoxy)-2-(1-(3,4-difluorobenzyl)-6-methyl-4-(5-methyl-3,4-dihydro-2H-benzo[b][1,4]oxazin-6-yl)-1H-pyrrolo[2,3-b]pyridin-5-yl)acetic acid, trifluoroacetic acid salt], for which the IC50 came out at 0.012 µM.

With `Cc1ccc(-c2c([C@H](OC(C)(C)C)C(=O)O)c(C)nc3c2ccn3Cc2ccc(F)c(F)c2)c(C)c1` (atropisomer, axis not shown; (M)) [Example 101, (2S)(M)-2-(tert-butoxy)-2-(1-(3,4-difluorobenzyl)-4-(2,4-dimethylphenyl)-6-methyl-1H-pyrrolo[2,3-b]pyridin-5-yl)acetic acid], the 50% inhibitory concentration (IC50) amounted to 0.09 µM.

`Cc1nc2c(ccn2Cc2ccc(F)cc2Cl)c(-c2ccc3c(c2)CCCO3)c1C(OC(C)(C)C)C(=O)O` (stereo not drawn) [Example 31, 2-(tert-butoxy)-2-(1-(2-chloro-4-fluorobenzyl)-4-(chroman-6-yl)-6-methyl-1H-pyrrolo[2,3-b]pyridin-5-yl)acetic acid]: the IC50 was determined as 0.04 µM.

`Cc1cc(F)ccc1Cn1ccc2c(-c3ccc4c(c3C)NCCO4)c([C@H](OC(C)(C)C)C(=O)O)c(C)nc21` (atropisomer, axis not shown; (M)) [Example 122, (2S)(M)-2-(tert-butoxy)-2-(1-(4-fluoro-2-methylbenzyl)-6-methyl-4-(5-methyl-3,4-dihydro-2H-benzo[b][1,4]oxazin-6-yl)-1H-pyrrolo[2,3-b]pyridin-5-yl)acetic acid]: the IC50 was determined as 0.014 µM.

Take `Cc1ccc(-c2c(C(OC(C)(C)C)C(=O)O)c(C)nc3c2ccn3Cc2ccc(F)cc2)cc1` (stereo not drawn) [Example 1, 2-(tert-butoxy)-2-(1-(4-fluorobenzyl)-6-methyl-4-(p-tolyl)-1H-pyrrolo[2,3-b]pyridin-5-yl)acetic acid]: the concentration for half-maximal inhibition (IC50) was 0.18 µM.

On to `Cc1nc2c(ccn2Cc2c(F)cc(F)cc2F)c(-c2ccc3c(c2)CCCO3)c1C(OC(C)(C)C)C(=O)O` (stereo not drawn) [Example 44, 2-(tert-butoxy)-2-(4-(chroman-6-yl)-6-methyl-1-(2,4,6-trifluorobenzyl)-1H-pyrrolo[2,3-b]pyridin-5-yl)acetic acid], for which the IC50 amounted to 0.053 µM.

Regarding `Cc1ccc(-c2c([C@H](OC(C)(C)C)C(=O)O)c(C)nc3c2ccn3Cc2ccc(F)c(F)c2)c(F)c1` [Example 115, (2S)-2-(tert-Butoxy)-2-(1-(3,4-difluorobenzyl)-4-(2-fluoro-4-methylphenyl)-6-methyl-1H-pyrrolo[2,3-b]pyridin-5-yl)acetic acid], the IC50 worked out at 0.029 µM.

Take `Cc1nc2c(ccn2Cc2ccc(F)c(F)c2)c(-c2ccc(F)cc2)c1[C@H](OC(C)(C)C)C(=O)O` [Example 102, (S)-2-(tert-Butoxy)-2-(1-(3,4-difluorobenzyl)-4-(4-fluorophenyl)-6-methyl-1H-pyrrolo[2,3-b]193pyridine-5-yl)acetic acid]: the IC50 was 0.367 µM.

For the molecule `Cc1nc2c(ccn2Cc2ccccc2)c(-c2ccc3c(c2)CCCO3)c1C(OC(C)(C)C)C(=O)O` (stereo not drawn) [Example 43, 2-(1-benzyl-4-(chroman-6-yl)-6-methyl-1H-pyrrolo[2,3-b]pyridin-5-yl)-2-(tert-butoxy)acetic acid], the 50% inhibitory concentration (IC50) was 0.084 µM.

As to `Cc1ccc(-c2c(C(OC(C)(C)C)C(=O)O)c(C)nc3c2ccn3Cc2cc(F)ccc2F)cc1` (stereo not drawn) [Example 6, 2-(tert-butoxy)-2-(1-(2,5-difluorobenzyl)-6-methyl-4-(p-tolyl)-1H-pyrrolo[2,3-b]pyridin-5-yl)acetic acid], the IC50 worked out at 0.182 µM.

Consider `Cc1ccc(-c2c([C@@H](OC(C)(C)C)C(=O)O)c(C)nc3c2ccn3Cc2cc(F)c(F)c(F)c2)cc1` [Example 10, (R)-2-(tert-butoxy)-2-(6-methyl-4-(p-tolyl)-1-(3,4,5-trifluorobenzyl)-1H-pyrrolo[2,3-b]pyridin-5-yl)acetic acid], for which the IC50 amounted to 10 µM.

For `Cc1ccc(-c2c(C(OC(C)(C)C)C(=O)O)c(C)nc3c2ccn3Cc2ccccc2)cc1` (stereo not drawn) [Example 19, 2-(1-benzyl-6-methyl-4-(p-tolyl)-1H-pyrrolo[2,3-b]pyridin-5-yl)-2-(tert-butoxy)acetic acid], the IC50 came to 0.17 µM.

Regarding `Cc1ccc(F)cc1Cn1ccc2c(-c3ccc4c(c3)CCCO4)c(C(OC(C)(C)C)C(=O)O)c(C)nc21` (stereo not drawn) [Example 54, 2-(tert-butoxy)-2-(4-(chroman-6-yl)-1-(5-fluoro-2-methylbenzyl)-6-methyl-1H-pyrrolo[2,3-b]pyridin-5-yl)acetic acid], the half-inhibitory concentration (IC50) was found to be 0.045 µM.

Regarding `Cc1ccc(F)c(Cn2ccc3c(-c4ccc5c(c4)CCCO5)c(C(OC(C)(C)C)C(=O)O)c(C)nc32)c1Cl` (stereo not drawn) [Example 53, 2-(tert-butoxy)-2-(1-(2-chloro-6-fluoro-3-methylbenzyl)-4-(chroman-6-yl)-6-methyl-1H-pyrrolo[2,3-b]pyridin-5-yl)acetic acid], the IC50 was 0.055 µM.

Take `Cc1nc2c(ccn2Cc2ccccc2F)c(-c2ccc3c(c2)CCCO3)c1C(OC(C)(C)C)C(=O)O` (stereo not drawn) [Example 39, 2-(tert-butoxy)-2-(4-(chroman-6-yl)-1-(2-fluorobenzyl)-6-methyl-1H-pyrrolo[2,3-b]pyridin-5-yl)acetic acid]: the IC50 is 0.068 µM.

As to `Cc1ccc(-c2c([C@H](OC(C)(C)C)C(=O)O)c(C)nc3c2ccn3[C@H](C)c2ccc(F)cc2)cc1` [Example 15, (S)-2-(tert-butoxy)-2-(1-((R)-1-(4-fluorophenyl)ethyl)-6-methyl-4-(p-tolyl)-1H-pyrrolo[2,3-b]pyridin-5-yl)acetic acid], the IC50 is 0.1 µM.

Turning to `Cc1nc2c(ccn2Cc2ccc(F)c(F)c2)c(-c2ccc(Cl)cc2)c1[C@H](OC(C)(C)C)C(=O)O` [Example 3, (S)-2-(tert-butoxy)-2-(4-(4-chlorophenyl)-1-(3,4-difluorobenzyl)-6-methyl-1H-pyrrolo[2,3-b]pyridin-5-yl)acetic acid], the 50% inhibitory concentration (IC50) was found to be 0.09 µM.

In the case of `Cc1nc2c(ccn2Cc2ccc(F)cc2Cl)c(-c2ccc3c(c2)CCCO3)c1[C@H](OC(C)(C)C)C(=O)O` [Example 48, (S)-2-(tert-butoxy)-2-(1-(2-chloro-4-fluorobenzyl)-4-(chroman-6-yl)-6-methyl-1H-pyrrolo[2,3-b]pyridin-5-yl)acetic acid], the IC50 was determined as 0.03 µM.

With `Cc1cc(Cl)ccc1-c1c(C(OC(C)(C)C)C(=O)O)c(C)nc2c1ccn2Cc1ccc(F)cc1` (stereo not drawn) [Example 94, 2-(tert-Butoxy)-2-(4-(4-chloro-2-methylphenyl)-1-(4-fluorobenzyl)-6-methyl-1H-pyrrolo[2,3-b]pyridin-5-yl)acetic acid, Trifluoroacetic acid salt], the 50% inhibitory concentration (IC50) amounted to 0.11 µM.
